Laboratory results reported in patent US5637731A (priority 1996, dated 1997).

Assays:
[1] = Stability remark in Table V; assay type: physicochemical; conditions: in place of the optical rotation
SDAT patients = conditions: cited from earlier work
[2] = tested on: peripheral acetylcholine-like effects; assay: Side effect profile: in vivo overt effects (salivation, tremor, diarrhea) after oral administration; set-up: species or system rat; conditions: (rat) po
Source text: The use of the radioligand binding assays (^3 H-QNB and ^3 H-CD) to characterize the hydroxylated oxotremorine derivatives provides a useful first approximation for,the evaluation of the muscarinic agonist-like profile of a test compound. However, in using a prodrug methodology, intrinsic activity will not be observed until in vivo hydrolysis or metabolism to the active compound occurs. Therefore, radioligand binding data, performed on the carbonyl derivatives, will not provide leading information. As a result, the observed overt effects after oral administration to rats of the test carbonyl derivative, relative to its corresponding hydroxylated oxotremorine compound, became the primary in vivo pharmacological measure. These in vivo overt effects are attributed to the peripheral acetylcholine-like effects of the compound, such as salivation, tremor and diarrhea. The in vivo overt effects also providing dosing information for the behavioral tests of cognitive improvement.

Row | Compound | stability (in words) [1] | Side Effect Profile minimum effective dose (MED) [2] | further results
1 | O=C1[C@H](O)CCN1CC#CCN1CCC1 [Example 33, (R)-3-Hydroxy-1-[4-(1-azetidinyl)-2-butynyl]-2-pyrrolidinone] | not stable | – | –
2 | O=C1[C@@H](O)CCN1CC#CCN1CCC1 [Example 31, (S)-3-Hydroxy-1-[4-(1-azetidinyl)-2-butynyl]-2-pyrrolidinone] | not stable | – | –
3 | COC(=O)C1=CCCN(C)C1 [arecoline] | – | – | improvement in SDAT patients compared to physostigmine (SDAT patients): more consistent improvement when compared to the anticholinergic inhibitor physostigmine
4 | CCCCNC(=O)O[C@H]1CCN(CC#CCN2CCCC2)C1=O [(S)-Butylcarbamic acid 1-2-oxo-[4-(1-pyrrolidinyl)-2-butynyl]-3-pyrrolidinyl ester] | – | 225 μ mol/kg | –
5 | CCCCCCNC(=O)O[C@@H]1CCN(CC#CCN(C)C)C1=O [(R)-Hexylcarbamic acid 1-[4-(dimethylamino)-2-butynyl]-2-oxo-3-pyrrolidinyl ester] | – | > 530 μ mol/kg | –
